Reference: article PMC8333425, “Discovery of a dual Ras and ARF6 inhibitor from a GPCR endocytosis screen” (Nature Communications, 2021)
Values joined by “and” are separate entries in the source; they are usually repeats but may differ in a detail not shown here. Identical values can stand only once.

Key:
A549 cells = assay: Cell viability assay (MTT), A549; assay type: cell-based, human
Method: MDA-MB-231 breast cancer cells and A549 lung carcinomas (1500 cells in 150 μl/well) were seeded overnight on a clear 96-well plate. Twenty-four hours later, the cells were treated with 0.1% DMSO, or different concentrations of Rasarfin (as indicated), or 10 µM of 21.4, 21.8 (MDA-MB-231 breast cancer cells) or Doxorubicin for the indicated times at 37 °C. At each time point, 10 μl of 5 mg/ml MTT was added to each well and the plates were incubated for an additional 4 h at 37 °C. The absorbance at 590 nm was measured by plate reader. Experiments were done in triplicate and repeated three times.

ARF6 = molecular target: T1, ARF6 (Homo sapiens, UniProt P62330); assay: GST-GGA3-PBD pull-down of EGFR-mediated ARF6 activation in MDA-MB-231 cells; assay type: cell-based; conditions: 50 μM
T1 construct: expressed in transfected cells; host or cells: HEK293SL
Method: Activation of ARF1, ARF6, Ras, and Rho were assessed by using GST pull-down assays. HEK293SL cells were transiently transfected with 3 µg AT1R-flag only (Ras and Rho) or along with 500 ng HA-ARF6 (ARF6) or HA-ARF1 (ARF1). Forty-eight hours later, the HEK293 or MDA-MB-231 cells were serum-starved for 4 h with DMEM containing 20 mM HEPES then pretreated with DMSO or Rasarfin (50 µM) for 30 min. Cells were then stimulated with 1 µM AngII or 100 ng/ml EGF for 0 and 2 min. Cells were then washed once with ice-cold PBS and lysed for 30 min at 4 °C in 300 µl of lysis buffer (pH 7.5, 50 mM Tris-HCl, 140 mM NaCl, 5 mM MgCl2, 10% glycerol (v/v), 1% Nonidet P-40 (v/v), 1 mM dithiothreitol) supplemented with protease inhibitors (1 mM phenylmethyl-sulfonyl fluoride (PMSF), 10 µg/ml leupeptin, 5 µg/ml aprotinin, 1 µg/ml pepstatin A) and phosphatase inhibitors (20 mM NaF, 0.025 mM pervanadate). The samples were cleared by centrifugation and 30 µl (cell lysates) was kept for assessing total protein contents. The remaining was transferred to fresh tubes with 20 µg of either GST, GST-GGA3-PBD, GST-Raf1-RBD or GST-Rhotekin-RBD coupled to glutathione resin and rotated for 1–2 h at 4 °C. […] ImageLab 5.2 software was used to quantify the digital blots as fold of the amount of pulled down protein over total protein. […]

EGFR = assay: BRET concentration-response, EGFR of Fig1d source data; assay type: cell-based, human
RhoA = molecular target: T2, RhoA (Homo sapiens, UniProt P61586); assay: GST-Rhotekin-RBD pull-down of AT1R-mediated RhoA activation; assay type: cell-based; conditions: for Rho-GTP/Rho: GST-Rhotekin-RBD, listed as Comp 21
T2 construct: endogenous in cells; host or cells: HEK293SL
Method: Activation of ARF1, ARF6, Ras, and Rho were assessed by using GST pull-down assays. HEK293SL cells were transiently transfected with 3 µg AT1R-flag only (Ras and Rho) or along with 500 ng HA-ARF6 (ARF6) or HA-ARF1 (ARF1). Forty-eight hours later, the HEK293 or MDA-MB-231 cells were serum-starved for 4 h with DMEM containing 20 mM HEPES then pretreated with DMSO or Rasarfin (50 µM) for 30 min. Cells were then stimulated with 1 µM AngII or 100 ng/ml EGF for 0 and 2 min. Cells were then washed once with ice-cold PBS and lysed for 30 min at 4 °C in 300 µl of lysis buffer (pH 7.5, 50 mM Tris-HCl, 140 mM NaCl, 5 mM MgCl2, 10% glycerol (v/v), 1% Nonidet P-40 (v/v), 1 mM dithiothreitol) supplemented with protease inhibitors (1 mM phenylmethyl-sulfonyl fluoride (PMSF), 10 µg/ml leupeptin, 5 µg/ml aprotinin, 1 µg/ml pepstatin A) and phosphatase inhibitors (20 mM NaF, 0.025 mM pervanadate). The samples were cleared by centrifugation and 30 µl (cell lysates) was kept for assessing total protein contents. The remaining was transferred to fresh tubes with 20 µg of either GST, GST-GGA3-PBD, GST-Raf1-RBD or GST-Rhotekin-RBD coupled to glutathione resin and rotated for 1–2 h at 4 °C. Beads were washed twice with lysis buffer and proteins were eluted in 25 μl 2x laemmli buffer by heating at 65 °C for 15 min. Proteins were resolved on 14% SDS-PAGE, transferred to nitrocellulose membranes, and immunoblotted for HA, Ras, RhoA, H-Ras, or ARF6. ImageLab 5.2 software was used to quantify the digital blots as fold of the amount of pulled down protein over total protein. Uncropped coomassie gels and immunoblots are provided in the Source Data file.

T2 sequence (P61586 whole entry): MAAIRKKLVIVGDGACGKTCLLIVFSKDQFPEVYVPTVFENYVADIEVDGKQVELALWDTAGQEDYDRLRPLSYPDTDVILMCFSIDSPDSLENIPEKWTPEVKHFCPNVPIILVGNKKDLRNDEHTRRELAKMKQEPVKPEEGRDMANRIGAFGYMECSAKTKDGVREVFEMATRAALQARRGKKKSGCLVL
T1 sequence (P62330 whole entry, species assumed): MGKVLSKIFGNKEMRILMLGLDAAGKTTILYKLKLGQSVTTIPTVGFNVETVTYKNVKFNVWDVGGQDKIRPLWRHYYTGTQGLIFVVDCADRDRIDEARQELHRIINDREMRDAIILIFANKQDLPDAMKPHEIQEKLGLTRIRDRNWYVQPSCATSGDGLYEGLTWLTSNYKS

What does the source list for `CC(C)C(=O)N1CCN(c2ccc(NC(=O)c3cc4ccccc4o3)cc2Cl)CC1` [Compound 21]?
A549 cell viability (MTT), compared with MDA-MB-231 cells (A549 cells; 10 µM of Rasarfin): more important cell viability effects; cell viability (MTT signal) (A549 cells; Rasarfin 0.5, 24h): 0.2876 and 0.2844 and 0.2473 and 0.4073 and 0.3734 and 0.2713; cell viability (MTT signal) (A549 cells; Rasarfin 1, 24h): 0.2899 and 0.2749 and 0.2483 and 0.4128 and 0.3694 and 0.3709; cell viability (MTT signal) (A549 cells; Rasarfin 2, 24h): 0.2852 and 0.2865 and 0.2518 and 0.3946 and 0.3796 and 0.386; cell viability (MTT signal) (A549 cells; Rasarfin 5, 24h): 0.2638 and 0.2592 and 0.2504 and 0.3187 and 0.2743 and 0.3116; cell viability (MTT signal) (A549 cells; Rasarfin 10, 24h): 0.2447 and 0.2619 and 0.2276 and 0.2701 and 0.2102 and 0.246; cell viability (MTT signal) (A549 cells; Rasarfin 10, 72h): 0.3944 and 0.2496 and 0.4081 and 0.2999 and 0.3697 and 0.3945; ARF6 activity in MDA-MB-231 cells (pull-down) (ARF6): inhibited; EGFR, ligand-promoted BRET (Mean) (EGFR; Log [Comp21] (M) -4.3): 103.469 percent compared to DMSO; EGFR, ligand-promoted BRET (Mean) (EGFR; Log [Comp21] (M) -4.6): 97.8054 percent compared to DMSO; EGFR, ligand-promoted BRET (Mean) (EGFR; Log [Comp21] (M) -5): 87.6772 percent compared to DMSO; EGFR, ligand-promoted BRET (Mean) (EGFR; Log [Comp21] (M) -5.3): 105.328 percent compared to DMSO; EGFR, ligand-promoted BRET (Mean) (EGFR; Log [Comp 21] (M) -6): 96.2669 percent compared to DMSO; EGFR, ligand-promoted BRET (Mean) (EGFR; Log [Comp21] (M) -6.3): 100.826 percent compared to DMSO; EGFR, ligand-promoted BRET (Mean) (EGFR; Log [Comp 21] (M) -7): 105.279 percent compared to DMSO; pull-down of Rho-GTP by GST-Rhotekin-RBD from cells stimulated with AT1R (RhoA; 50 μM): nor did it prevent the pull-down of Rho-GTP; Rho-GTP/Rho (RhoA; AngII): 0.2491 and 0.2385 and 0.2151 and 0.2027; Rho-GTP/Rho (RhoA; Ctrl): 0.1261 and 0.1465 and 0.07786 and 0.1043
